Reference: patent US10016382B2, “Method for decreasing skeletal muscle damage and/or oxidative stress in mammals” (LONZA INC., priority 2014, dated 2018)

Experiment: Body composition by GE Prodigy DEXA scan, Example 1
Type: in vivo, dog
Details: for % Fat, Mean / BMC, Mean / Lean Mass, Mean / Total Mass, Mean: Table 14; for BMC-Change / Lean Mass-Change / Total Mass-Change / BMC-Final / BMC-Initial / Lean Mass-Final / Lean Mass-Initial / Total Mass-Final / Total Mass-Initial: Table 20, mean ± SEM; for BMC-Change / Lean Mass-Change / Total Mass-Change: beginning to completion of study
Protocol: Forty Labrador Retrievers were divided into two equal groups of twenty (11 males, 9 females) based on gender, body weight (“BW”), genetics, and lean mass and fed a low L-carnitine basal diet for a 90 day feeding period. The experimental dogs were fed the low L-carnitine basal for 10 days prior to the start of the study. Twenty of the Labs received 250 mg/day of L-carnitine (batch D22312) and 3.75 g of sugar and twenty of the Labs received 4 g/d of sugar. The dogs were scanned with a GE Prodigy DEXA system immediately prior to beginning of the study and the determined lean mass was utilized as a key component for helping assort the dogs equally between the control and L-carnitine group. A serum sample was obtained from each dog to determine a baseline value for blood biomarkers that were used to evaluate muscle damage and antioxidant status. The L-carnitine and control performance dogs were put through a weekly running program consisting of running sprint type shorter runs of higher intensity twice weekly (1200 yds/session increasing to 2400 yds/session over 10 wk period) and running endurance longer runs one time per wk (increasing from 5 miles/session to 10 miles per session over a 10 wk period). Each performance dog also wore the Actical activity monitor during the last endurance run. The dogs were put through a 15 mile run that included mud, water, tall grass, and swimming. The dogs were timed when they completed the course. The dogs were encouraged by kennel staff that rode along in a 4 wheel all terrain type vehicle during all of the endurance runs. […] Immediately following the 15 mile endurance run, each dog was placed in a kennel and evaluated for recovery time for body temperature (every 15 minutes for 2 hr) and heart rate (every 2 minutes for 14 minutes). Twenty four hours after test dogs ran the last 15 endurance run, post-run serum samples were taken to evaluate biomarkers for muscle damage and antioxidant status. Each test dog was also scanned with the GE Prodigy DEXA to determine body composition change that occurred during the course of the 13 wk study. Body Scans: Each dog was scanned for body composition with a GE Prodigy Pro Fan beam instrument during the week prior to the beginning of the 90 day study and the first working day following the last endurance run. Body composition values were determined for % lean mass, % fat mass, and % bone ash for each dog. The difference in body composition was determined by comparing the beginning scan and last scan for each test dog. The final scans were completed 24 hr post run.

C[N+](C)(C)C[C@H](O)CC(=O)[O-] [L-carnitine]
Lean mass over the study (Ex.1, 250 mg/d, DEXA, initial vs final, either group): No increase in lean mass
Increase in % fat mass (Ex.1, 250 mg/d, females, beginning to end of study, vs 8.9% control females (p=0.22)): 4.2%
Increase in fat (Ex.1, 250 mg/d, females, over 90 day study, unpaired t-test (Table 20), vs 9% control females (p=0.30)): 5.8%
Fat mass at the end of the study (Ex.1, 250 mg/d, females, vs 11.1 lbs control (p=0.29)): 8.9 lbs
BMC Least Sq Mean (F, Final): 820.2 g
Fat Least Sq Mean (F, Final): 8.892 lbs
Fat Percentage Least Sq Mean (F, Final): 16.32
Lean Mass Least Sq Mean (F, Final): 45.62 lbs
Total Mass Least Sq Mean (F, Final): 54.51 lbs
BMC Least Sq Mean (F, Initial): 766.5 g
Fat Least Sq Mean (F, Initial): 5.631 lbs
Fat Percentage Least Sq Mean (F, Initial): 11.03
Lean Mass Least Sq Mean (F, Initial): 45.83 lbs
Total Mass Least Sq Mean (F, Initial): 51.14 lbs
BMC Least Sq Mean (Final): 861.6 g
Fat Least Sq Mean (Final): 8.558 lbs
Fat Percentage Least Sq Mean (Final): 14.52
Lean Mass Least Sq Mean (Final): 49.83 lbs
Total Mass Least Sq Mean (Final): 58.39 lbs
BMC Least Sq Mean (Initial): 784.2 g
Fat Least Sq Mean (Initial): 5.779 lbs
Fat Percentage Least Sq Mean (Initial): 10.31
Lean Mass Least Sq Mean (Initial): 49.87 lbs
Total Mass Least Sq Mean (Initial): 55.49 lbs
BMC Least Sq Mean (M, Final): 903 g
Fat Least Sq Mean (M, Final): 8.225 lbs
Fat Percentage Least Sq Mean (M, Final): 12.73
Lean Mass Least Sq Mean (M, Final): 54.04 lbs
Total Mass Least Sq Mean (M, Final): 62.27 lbs
BMC Least Sq Mean (M, Initial): 801.8 g
Fat Least Sq Mean (M, Initial): 5.927 lbs
Fat Percentage Least Sq Mean (M, Initial): 9.582
Lean Mass Least Sq Mean (M, Initial): 53.9 lbs
Total Mass Least Sq Mean (M, Initial): 59.83 lbs
% Fat, Mean (Sex F, Final): 16.3%
BMC, Mean (Sex F, Final): 820 g
Lean Mass, Mean (Sex F, Final): 45.6 lb
Total Mass, Mean (Sex F, Final): 54.5 lb
% Fat, Mean (Sex F, Initial): 12.1%
BMC, Mean (Sex F, Initial): 764 g
Lean Mass, Mean (Sex F, Initial): 44.7 lb
Total Mass, Mean (Sex F, Initial): 50.8 lb
% Fat, Mean (Sex M, Final): 12.7%
BMC, Mean (Sex M, Final): 903 g
Lean Mass, Mean (Sex M, Final): 54.0 lb
Total Mass, Mean (Sex M, Final): 62.3 lb
% Fat, Mean (Sex M, Initial): 9.6%
BMC, Mean (Sex M, Initial): 802 g
Lean Mass, Mean (Sex M, Initial): 53.9 lb
Total Mass, Mean (Sex M, Initial): 59.8 lb
% Fat, Mean (all dogs, Final): 14.3%
BMC, Mean (all dogs, Final): 866 g
Lean Mass, Mean (all dogs, Final): 50.3 lb
Total Mass, Mean (all dogs, Final): 58.8 lb
% Fat, Mean (all dogs, Initial): 10.6%
BMC, Mean (all dogs, Initial): 787 g
Lean Mass, Mean (all dogs, Initial): 50.3 lb
Total Mass, Mean (all dogs, Initial): 56.3 lb
BMC-Change (all dogs): 82 ± 46 n = 20 g
Lean Mass-Change (all dogs): 0.1 ± 0.3 n = 20 lb
Total Mass-Change (all dogs): 3.4 ± 0.8 n = 20 lb
BMC-Final (all dogs): 866 ± 26 n = 20 g
BMC-Initial (all dogs): 784 ± 44 n = 20 g
Lean Mass-Final (all dogs): 50.3 ± 1.5 n = 20 lb
Lean Mass-Initial (all dogs): 50.2 ± 1.5 n = 20 lb
Total Mass-Final (all dogs): 58.8 ± 1.7 n = 20 lb
Total Mass-Initial (all dogs): 55.3 ± 1.7 n = 20 lb
BMC-Change (♀): 58 ± 11 n = 9 g
Lean Mass-Change (♀): 0 ± 0.5 n = 9 lb
Total Mass-Change (♀): 4.7 ± 1.5 n = 9 lb
BMC-Final (♀): 820 ± 19 n = 9 g
BMC-Initial (♀): 762 ± 18 n = 9 g
Lean Mass-Final (♀): 45.6 ± 1.7 n = 9 lb
Lean Mass-Initial (♀): 45.7 ± 1.3 n = 9 lb
Total Mass-Final (♀): 54.5 ± 1.4 n = 9 lb
Total Mass-Initial (♀): 49.8 ± 1.1 n = 9 lb
BMC-Change (♂): 101 ± 84 n = 11 g
Lean Mass-Change (♂): 0.1 ± 0.5 n = 11 lb
Total Mass-Change (♂): 2.4 ± 0.6 n = 11 lb
BMC-Final (♂): 903 ± 42 n = 11 g
BMC-Initial (♂): 802 ± 80 n = 11 g
Lean Mass-Final (♂): 54 ± 1.7 n = 11 lb
Lean Mass-Initial (♂): 53.9 ± 1.8 n = 11 lb
Total Mass-Final (♂): 62.3 ± 2.6 n = 11 lb
Total Mass-Initial (♂): 59.8 ± 2.2 n = 11 lb
BMC Least Sq Mean (Treatment * Sex, F): 766.5 g
Fat Least Sq Mean (Treatment * Sex, F): 7.261 lbs
Fat Percentage Least Sq Mean (Treatment * Sex, F): 11.03
Lean Mass Least Sq Mean (Treatment * Sex, F): 45.83 lbs
Total Mass Least Sq Mean (Treatment * Sex, F): 51.14 lbs
BMC Least Sq Mean (Treatment * Sex, M): 801.8 g
Fat Least Sq Mean (Treatment * Sex, M): 7.076 lbs
Fat Percentage Least Sq Mean (Treatment * Sex, M): 9.582
Lean Mass Least Sq Mean (Treatment * Sex, M): 53.9 lbs
Total Mass Least Sq Mean (Treatment * Sex, M): 59.83 lbs
BMC Least Sq Mean (Treatment level, all dogs): 784.2 g
Fat Least Sq Mean (Treatment level, all dogs): 7.169 lbs
Fat Percentage Least Sq Mean (Treatment level, all dogs): 10.31
Lean Mass Least Sq Mean (Treatment level, all dogs): 49.87 lbs
Total Mass Least Sq Mean (Treatment level, all dogs): 55.49 lb
Body mineral content (BMC), mixed model Estimate, term Treatment[L-carnitine] (model term): −22.85
Body mineral content (BMC), mixed model Estimate, term Treatment[L-carnitine] * Sex[F] (model term): 37.64
Body mineral content (BMC), mixed model Estimate, term Treatment[L-carnitine] * Sex[F] * Time[Final-Initial] (model term): −17.19
Body mineral content (BMC), mixed model Estimate, term Treatment[L-carnitine] * Time[Final-Initial] (model term): 6.762
Fat mass, mixed model Estimate, term Treatment[L-carnitine] (model term): −0.2546
Fat mass, mixed model Estimate, term Treatment[L-carnitine] * Sex[F] (model term): −0.1764
Fat mass, mixed model Estimate, term Treatment[L-carnitine] * Sex[F] * Time[Initial] (model term): 0.331
Fat mass, mixed model Estimate, term Treatment[L-carnitine] * Time[Initial] (model term): 0.3408
Fat percentage, mixed model Estimate, term Treatment[L-carnitine] (model term): 0.1573
Fat percentage, mixed model Estimate, term Treatment[L-carnitine] * Sex[F] (model term): 0.281
Fat percentage, mixed model Estimate, term Treatment[L-carnitine] * Sex[F] * Time[Final-Initial] (model term): −0.9515
Fat percentage, mixed model Estimate, term Treatment[L-carnitine] * Time[Final-Initial] (model term): −0.8868
Lean mass, mixed model Estimate, term Treatment[L-carnitine] (model term): −0.3966
Lean mass, mixed model Estimate, term Treatment[L-carnitine] * Sex[F] (model term): 0.618
Lean mass, mixed model Estimate, term Treatment[L-carnitine] * Sex[F] * Time[Final-Initial] (model term): 0.1808
Lean mass, mixed model Estimate, term Treatment[L-carnitine] * Time[Final-Initial] (model term): −0.234
Total Body Mass, mixed model Estimate, term Treatment[L-carnitine] (model term): −0.3536
Total Body Mass, mixed model Estimate, term Treatment[L-carnitine] * Sex[F] (model term): 0.6569
Total Body Mass, mixed model Estimate, term Treatment[L-carnitine] * Sex[F] * Time[Final-Initial] (model term): −0.3655
Total Body Mass, mixed model Estimate, term Treatment[L-carnitine] * Time[Final-Initial] (model term): −0.8724
